{"source": "paper PMC13298843", "about": "“Substituent size versus metal binding of inhibitors with variants of influenza endonuclease^” (Journal of inorganic biochemistry, 2025)", "format_in_all_cases": "binding, influenza A/California/04/2009(H1N1)", "conditions_in_all_cases": "200 µM", "key": {"[1]": {"target": "WT PAN endonuclease (Influenza A virus, UniProt C3W5S0, DEL52-64/INS51G, form not given)"}, "[2]": {"target": "E23K mutant PAN endonuclease (Influenza A virus, UniProt C3W5S0, DEL52-64/E23K/INS51G, form not given)"}, "[3]": {"target": "I38T mutant PAN endonuclease (Influenza A virus, UniProt C3W5S0, DEL52-64/I38T/INS51G, form not given)"}}, "data": [{"compound": "CSc1ccccc1-c1cc(=O)c(O)c(C(=O)O)[nH]1", "note": "[Compound 3]", "values": [{"measurement": "WT ΔTm (thermal shift)", "setting": "[1]", "result": "10.89 ± 0.12", "unit": "°C"}, {"measurement": "E23K ΔTm (thermal shift)", "setting": "[2]", "result": "7.21 ± 0.15", "unit": "°C"}, {"measurement": "I38T ΔTm (thermal shift)", "setting": "[3]", "result": "10.86 ± 0.12", "unit": "°C"}]}]}
